# Source: patent US9464048B2, “5-oxo-ETE receptor antagonist compounds” (THE ROYAL INSTITUTION FOR THE ADVANCEMENT OF …, priority 2009, dated 2016)
# Biological target: OXE receptor (Homo sapiens, UniProt Q8TDS5)
# Assay: 5-oxo-ETE-induced calcium mobilization in human granulocytes
# Assay type: cell-based
# Set-up: Human granulocytes 95% neutrophils) are prepared from whole blood; endogenous in cells; host or cells: human blood granulocytes (>=95% neutrophils)
# Conditions: not given
# Description: Primary Screening for Antagonist Activity: Calcium Mobilization in Human Granulocytes
# Human granulocytes 95% neutrophils) are prepared from whole blood using Dextran 500 to remove red blood cells, followed by centrifugation over Ficoll-Paque to remove mononuclear cells and hypotonic lysis of any remaining red blood cells. After centrifugation the granulocytes are suspended in Ca^++/Mg^++-free phosphate-buffered saline (PBS). Granulocytes (10^7 cells/nil) are incubated with the acetoxymethyl ester of indo-1 ([…]) for 30 min, followed by washing twice with PBS^− and resuspension in the same medium to obtain a final cell concentration of 3.22×10^6 cells/ml. Five minutes prior to commencing data acquisition, Ca^++ and Mg^++ are added to give final concentrations of 1.8 and 1 mM, respectively. Calcium measurements are performed at 37° C. using a spectrofluorometer equipped with a temperature-controlled cuvette holder and a magnetic stirrer. The excitation and emission wavelengths are 331 nm and 410 nm, respectively. Following stabilization of the baseline, fluorescence is measured for 1 min, prior to the addition of either vehicle or various concentrations of a potential 5-oxo-ETE antagonist. Two min later, 5-oxo-ETE (10 nM) is added, followed 1 min later by digitonin (final concentration 0.1%). Data acquisition is terminated after a further 0.5 min. In some cases LTB4 (10 nM) is added 2 min after 5-oxo-ETE, followed 0.5 min later by addition of digitonin. Fmax is determined from fluorescence measurements after the addition of digitonin, whereas Fmin is determined after determination of autofluorescence as described in the literature (Gelfand et al, J. Biol. Chem. 261:11520 (1986)). A dissociation constant of 250 nM for the indo-1/Ca^++ complex is used to calculate [Ca^++]i. […] Measurement of Actin Polymerization in Eosinophils
# OXE receptor, sequence (Q8TDS5 whole entry): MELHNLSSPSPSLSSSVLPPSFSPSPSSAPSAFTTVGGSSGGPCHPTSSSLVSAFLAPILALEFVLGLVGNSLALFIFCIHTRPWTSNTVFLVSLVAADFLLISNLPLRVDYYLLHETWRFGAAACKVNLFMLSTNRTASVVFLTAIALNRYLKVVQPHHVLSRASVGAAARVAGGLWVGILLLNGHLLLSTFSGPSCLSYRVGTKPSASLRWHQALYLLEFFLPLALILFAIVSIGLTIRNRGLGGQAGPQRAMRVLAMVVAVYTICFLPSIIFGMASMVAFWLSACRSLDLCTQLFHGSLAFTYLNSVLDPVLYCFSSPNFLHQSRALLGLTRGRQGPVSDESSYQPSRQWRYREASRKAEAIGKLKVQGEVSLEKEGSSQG
row,Structure (SMILES),IC50 [µM]
1,"CCCCCCc1c(C(=O)c2cccc(C(=O)O)c2)c2cc(Cl)ccc2n1C [Compound 108, 3-(5-Chloro-2-hexyl-1-methyl-1H-indole-3-carbonyl)benzoic acid]",0.065

# Same assay, conditions: 5-oxo-ETE 10 nM; human granulocytes; Table 2; read-out: IC50 (μM) Ca^++
row,Structure (SMILES),IC50 [µM]
1,"CC(C)CCCCc1cc2cc(Cl)ccc2n1C(=O)CC(C)CC(=O)O (racemic) [Compound 115, 5-[5-Chloro-2-(5-methyl-hexyl)-indol-1-yl]-3-methyl-5-oxo-pentanoic acid]",2
2,"CCCCCCc1c(C(=O)C[C@@H](C)CC(=O)NC(C)c2ccccc2)c2cc(Cl)ccc2n1C (stereo partly drawn) [Compound 106, 5-(5-Chloro-2-hexyl-1-methyl-1H-indol-3-yl)-3-(R)-methyl-5-oxo-pentanoic acid (1-phenyl-ethyl)-amide]",> 10
3,"CCCCCCc1cc2ccccc2n1C(=O)CCCC(=O)O [Compound 1, 5-(2-Hexyl-indol-1-yl)-5-oxo-pentanoic acid]",1
4,"CCCCCCc1c(C(=O)CC(C)CC(=O)O)c2cc(Cl)ccc2n1CC (stereo not drawn) [Compound 101, 5-(5-Chloro-1-ethyl-2-hexyl-1H-indol-3-yl)-3-methyl-5-oxo-pentanoic acid]",0.35
5,"CCCCCCc1cc2ccc(Cl)cc2n1C(=O)CCC(C)(C)C(=O)O [Compound 116, 5-(6-Chloro-2-hexyl-indol-1-yl)-2,2-dimethyl-5-oxo-pentanoic acid]",> 10
6,"CCCCCCCc1c(C(=O)CC(C)CC(=O)O)c2cc(Cl)ccc2n1C (racemic) [Compound 113, 5-(5-Chloro-2-heptyl-1-methyl-1H-indol-3-yl)-3-methyl-5-oxo-pentanoic acid]",0.035
7,"CCCCCCc1c(C(=O)CC(C)CC(=O)NC(C)c2ccccc2)c2cc(Cl)ccc2n1C (stereo not drawn) [Compound 105, 5-(5-chloro-2-hexyl-1-methyl-1H-indol-3-yl)-3-methyl-5-oxo-N-(1-phenylethyl)pentanamide]",> 10
8,"CCCCCCc1c(C(=O)CC(C)CC(=O)O)c2ccc(Cl)cc2n1C (stereo not drawn) [Compound 104, 5-(6-Chloro-2-hexyl-1-methyl-1H-indol-3-yl)-3-methyl-5-oxo-pentanoic acid]",0.119
9,"CCCCCCc1c(C(=O)CC(C)CC(=O)O)c2cc(Cl)ccc2n1C (stereo in doubt) [Compound 107, 5-(5-Chloro-2-hexyl-1-methyl-1H-indol-3-yl)-3-(R)-methyl-5-oxo-pentanoic acid]",0.009
10,"CC(C)CCCCc1c(C(=O)CC(C)CC(=O)O)c2cc(Cl)ccc2n1C (stereo not drawn) [Compound 114, 5-[5-Chloro-1-methyl-2-(5-methyl-hexyl)-1H-indol-3-yl]-3-methyl-5-oxo-pentanoic acid]",0.011
11,"CCCCCCc1c(C(=O)C[C@@H](C)CC(=O)O)c2cc(Cl)ccc2n1C [Compound 100, 5-(5-chloro-2-hexyl-1-methyl-1H-indol-3-yl)-3-(R)-methyl-5-oxopentanoic acid]",0.125
12,"CC(C)CCCCc1cc2ccc(Cl)cc2n1C(=O)CC(C)CC(=O)O (stereo not drawn) [Compound 110, 5-[6-Chloro-2-(5-methyl-hexyl)-indol-1-yl]-3-methyl-5-oxo-pentanoic acid]",1.03
13,"CCCCCCc1c(C(=O)CCCC(=O)O)c2ccccc2n1C [Compound 5, 5-(2-Hexyl-1-methyl-1H-indol-3-yl)-5-oxo-pentanoic acid]",2.5
14,"CC(C)CCCCc1c(C(=O)CC(C)CC(=O)O)c2ccc(Cl)cc2n1C (racemic) [Compound 109, 5-[6-Chloro-1-methyl-2-(5-methyl-hexyl)-1H-indol-3-yl]-3-methyl-5-oxo-pentanoic acid]",0.175
15,"CCCCCCc1c(C(=O)CC(C)CC(=O)O)c2ccccc2n1C (stereo not drawn) [Compound 6, 5-(2-Hexyl-1-methyl-1H-indol-3-yl)-3-methyl-5-oxo-pentanoic acid]",0.34
16,"CCCCCCc1c(C(=O)CC(C)CC(=O)O)c2ccccc2n1CC (stereo not drawn) [Compound 102, 5-(1-Ethyl-2-hexyl-1H-indol-3-yl)-3-methyl-5-oxo-pentanoic acid]",1.6

# Same assay, conditions: Table 3; position of hexyl/hexenyl on the scaffold; readout not given, values match Ca^++; read-out: IC50
row,Structure (SMILES),IC50 [µM]
1,"CCCCCCc1ccc2ccn(C(=O)CCCC(=O)O)c2c1 [Compound 31, 5-(6-Hexyl-indol-1-yl)-5-oxo-pentanoic acid]",> 10
2,"CCCC/C=C/c1cccc2ccn(C(=O)CCCC(=O)O)c12 [Compound 32, 5-(7-Hex-1-enyl-indol-1-yl)-5-oxo-pentanoic acid]",> 10
3,"CCCCCCc1cc2ccccc2n1C(=O)CCCC(=O)O [Compound 1, 5-(2-Hexyl-indol-1-yl)-5-oxo-pentanoic acid]",1
4,"CCCC/C=C/c1ccc2c(ccn2C(=O)CCCC(=O)O)c1 [Compound 28, 5-(5-hex-1-enyl-indol-1-yl)-5-oxo-pentanoic acid]",6.5
5,"CCCCCCc1cn(C(=O)CCCC(=O)O)c2ccccc12 [Compound 7, 5-(3-Hexyl-indol-1-yl)-5-oxo-pentanoic acid]",> 30
6,"CCCCCCc1cccc2ccn(C(=O)CCCC(=O)O)c12 [Compound 27, 5-(7-Hexyl-indol-1-yl)-5-oxo-pentanoic acid]",> 30
7,"CCCCCCc1ccc2c(ccn2C(=O)CCCC(=O)O)c1 [Compound 30, 5-(5-Hexyl-indol-1-yl)-5-oxo-pentanoic acid]",> 30

# Same assay, conditions: Table 4; R1/R2/R3 variation; readout not given; read-out: IC50
row,Structure (SMILES),IC50 [µM]
1,"CCCCCCc1c(C(=O)CCCC(=O)O)n(C)c2ccccc12 [Compound 11, 5-(3-Hexyl-1-methyl-1H-indol-2-yl)-5-oxo-pentanoic acid]",> 30
2,"CCCCCCn1cc(C(=O)CCCC(=O)O)c2ccccc21 [Compound 8, 5-(1-Hexyl-1H-indol-3-yl)-5-oxo-pentanoic acid]",> 30
3,"CCCCCCc1c(C(=O)CCCC(=O)O)c2ccccc2n1C [Compound 5, 5-(2-Hexyl-1-methyl-1H-indol-3-yl)-5-oxo-pentanoic acid]",3.7
4,"CCCCCCc1[nH]c2ccccc2c1C(=O)CCCC(=O)O [Compound 10, 5-(2-Hexyl-1H-indol-3-yl)-5-oxo-pentanoic acid]",11

# Same assay, conditions: Table 5; alkyl chain variation; readout not given, values match Ca^++; read-out: IC50
row,Structure (SMILES),IC50 [µM]
1,"CCCCCCCCc1cc2ccccc2n1C(=O)CCCC(=O)O [Compound 25, 5-(2-Octyl-indol-1-yl)-5-oxo-pentanoic acid]",2.7
2,"CCCCCCc1cc2ccccc2n1C(=O)CCCC(=O)O [Compound 1, 5-(2-Hexyl-indol-1-yl)-5-oxo-pentanoic acid]",1
3,"CCCCCCc1cc2cc(Cl)ccc2n1C(=O)CCCC(=O)O [Compound 29, 5-(5-Chloro-2-hexyl-indol-1-yl)-5-oxo-pentanoic acid]",1.4
4,"CCCCCCCCCCCc1cc2ccccc2n1C(=O)CCCC(=O)O [Compound 23, 5-Oxo-5-(2-undecyl-indol-1-yl)-pentanoic acid]",25
5,"CCCCCc1cc2ccccc2n1C(=O)CCCC(=O)O [Compound 18, 5-Oxo-5-(2-pentyl-indol-1-yl)-pentanoic acid]",1.1
6,"CCCCc1cc2ccccc2n1C(=O)CCCC(=O)O [Compound 26, 5-(2-Butyl-indol-1-yl)-5-oxo-pentanoic acid]",> 30
7,"CCCCCCCCC/C=C\c1cc2ccccc2n1C(=O)CCCC(=O)O [Compound 20, 5-Oxo-5-(2-undec-1-enyl-indol-1-yl)-pentanoic acid]",20
8,"CCCC/C=C/c1cc2ccccc2n1C(=O)CCCC(=O)O [Compound 12, 5-(2-Hex-1-enyl-indol-1-yl)-5-oxo-pentanoic acid]",3.3
9,"CCCCCCCc1cc2ccccc2n1C(=O)CCCC(=O)O [Compound 33, 5-(2-Heptyl-indol-1-yl)-5-oxo-pentanoic acid]",1.5

# Same assay, conditions: Table 6; carboxyl side chain variation; readout not given, values match Ca^++; read-out: IC50
row,Structure (SMILES),IC50 [µM]
1,"CCCCCCc1cc2ccccc2n1C(=O)CCC(=O)O [Compound 14, 4-(2-Hexyl-indol-1-yl)-4-oxo-butyric acid]",> 10
2,"CCCCCCc1cc2ccccc2n1C(=O)CCCC(=O)O [Compound 1, 5-(2-Hexyl-indol-1-yl)-5-oxo-pentanoic acid]",1
3,"CCCCCCc1cc2ccccc2n1C(=O)CC(C)(C)CC(=O)O [Compound 21, 5-(2-Hexyl-indol-1-yl)-3,3-dimethyl-5-oxo-pentanoic acid]",13
4,"CCCCCCc1cc2ccccc2n1CCCC(=O)O [Compound 16, 4-(2-Hexyl-indol-1-yl)-butyric acid]",4.5
5,"CCCCCCc1cc2ccccc2n1C(=O)C[C@@H](C)CC(=O)O [Compound 3, 5-(2-Hexyl-indol-1-yl)-3(R)-methyl-5-oxo-pentanoic acid]",0.8

# Same assay, conditions: Table 7; alkyl variation; readout not given, values match Ca^++; read-out: IC50
row,Structure (SMILES),IC50 [µM]
1,"CCCC/C=C/c1ccc2c(ccn2C(=O)CC(C)CC(=O)O)c1 (stereo not drawn) [Compound 17, 5-(5-Hex-1-enyl-indol-1-yl)-3-methyl-5-oxo-pentanoic acid]",10
2,"CCCCCc1cc2ccccc2n1C(=O)CC(C)CC(=O)O (stereo not drawn) [Compound 19, 3-Methyl-5-oxo-5-(2-pentyl-indol-1-yl)-pentanoic acid]",0.1
3,"CCCCCCCc1cc2ccccc2n1C(=O)CC(C)CC(=O)O (stereo not drawn) [Compound 34, 5-(2-Heptyl-indol-1-yl)-3-methyl-5-oxo-pentanoic acid]",0.12
